The target in one test is T1, 5-lipoxygenase (Rattus norvegicus, UniProt P12527).
T1 construct: The cell-free homogenate was prepared by sonication of the cells followed by centrifugation at 40,000 xg; endogenous in cells; host or cells: RBL-1 (rat basophilic leukemia) cells, 40,000 xg supernatant of the sonicate
T1 sequence (P12527 1-673): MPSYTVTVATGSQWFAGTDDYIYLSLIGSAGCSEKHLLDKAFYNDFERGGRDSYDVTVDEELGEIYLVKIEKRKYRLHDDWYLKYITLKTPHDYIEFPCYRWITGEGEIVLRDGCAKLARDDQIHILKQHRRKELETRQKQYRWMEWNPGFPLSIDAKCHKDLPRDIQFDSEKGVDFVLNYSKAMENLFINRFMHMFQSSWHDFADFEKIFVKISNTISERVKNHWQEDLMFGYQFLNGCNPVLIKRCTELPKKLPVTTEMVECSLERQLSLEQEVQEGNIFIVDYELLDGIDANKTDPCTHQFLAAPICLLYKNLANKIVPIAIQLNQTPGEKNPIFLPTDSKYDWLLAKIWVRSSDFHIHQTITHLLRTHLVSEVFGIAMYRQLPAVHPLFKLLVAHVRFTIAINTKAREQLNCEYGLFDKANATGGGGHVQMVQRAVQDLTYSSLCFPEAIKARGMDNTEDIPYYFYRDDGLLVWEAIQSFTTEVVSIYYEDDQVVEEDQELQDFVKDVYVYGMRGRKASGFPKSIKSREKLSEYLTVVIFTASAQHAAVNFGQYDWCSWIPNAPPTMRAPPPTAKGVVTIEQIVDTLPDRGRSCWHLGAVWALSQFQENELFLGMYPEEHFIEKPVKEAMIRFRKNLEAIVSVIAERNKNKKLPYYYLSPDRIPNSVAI
The experiment in a line: Inhibition of 5-lipoxygenase in cell-free homogenate of rat basophilic leukemia (RBL-1) cells. To be noted: RBL-1 cell-free homogenate; for inhibition at 3 µM: read-out: Inhibition of 5-Lipoxygenase, % Inh. @ 3 μM. The test is classed as biochemical. How it is done:
The inhibition of 5-lipoxygenase was tested in a cell-free homogenate by the procedure of B. Jakschik et al., Biochem.Biophys.Res.Comm. 95, 103 (1980). Basically, rat basophilic leukemia cells (RBL-1 cells) were maintained in culture in a suitable medium, and were collected by centrifugation prior to assay. The cell-free homogenate was prepared by sonication of the cells followed by centrifugation at 40,000 xg. The CaCl2 dependent production of lipoxygenase products from ^14 C-arachidonic acid in the 40,000 xg supernatant was monitored in the presence of buffer (or other vehicle) or drug. Products were isolated by acidification and extraction, followed by thin layer chromatography. Radioactive areas corresponding to the authentic lipoxygenase products were quantitated by liquid scintillation counting. Data was reported as the IC50, the concentration causing 50% inhibition of the generation of lipoxygenase products. The results are shown it Table I as the percent inhibition at 3 μM or the amount of compound necessary to cause 50% inhibition.

Test [1] deals with Arachidonate-Induced Bronchospasm (lipoxygenase). The experiment in a line: Pulmonary Mechanics Assay: arachidonate-induced bronchospasm with indomethacin (SRS-A response, indicative of lipoxygenase inhibition). The conditions noted are these: Cavia porcellus, guinea pig; for inhibition in vivo at 15 mg/kg: IV dosing, read-out: Inhibition of Arachidonate-Induced Bronchospasm (IV Dosing), % Inh. with Indomethacin. The test is classed as in vivo, male Hartley guinea pigs. How it is done: (§1) The bronchodilating activity of the compounds was tested in a pulmonary mechanics assay. Basically, male Hartley guinea pigs (about 400-500 g) were anesthetized with urethane (2 g/kg, i.p.) and placed in a whole body Plethysmograph. Cannulations of a jugular vein and carotid artery were performed for compound administration and monitoring blood pressure, respectively. The trachea was cannulated for respiration at a constate volume via a miniature starling pump. A Validyne differential pressure transducer (±20 cm H2 O) sensed transpleural pressure via a 15 gauge needle inserted into the pleural cavity and a sidearm from the tracheal cannula. Tidal volume was sensed by another Validyne differential pressure transducer (±2 cm H2 O) from pressure changes inside the plethysmograph. An on-line Buxco pulmonary mechanics computer calculated air flow, dynamic lung compliance and lung resistance. The values were recorded on a print-out.
(§2) The guinea pigs were pretreated with succinyl choline (1.2 mg/kg, i.v.) to arrest spontaneous respiration. A control challenge of arachidonic acid (0.5-1.0 mg/kg, i.v.) was administered, and the animals were then dosed with the test compound by various routes. At least 10 minutes were allowed to expire between arachidonic acid challenges. A second challenge was given and compared to the control response. This comparison was indicative of cyclooxygenase inhibition. Indomethacin (10 mg/kg, i.v.) was administered immediately after the second challenge. A third challenge of a higher dose of arachidonic acid (5-10 mg/kg, i.v.) was given. This response was induced by SRS-A and compared to the responses elicited by a separate control group of animals. Activity was indicative of lipoxygenase inhibition. Propranolol (0.005 mg/kg. i.v.) may be given prior to the third challenge to enhance the response to SRS-A.
(§3) Bronchoconstriction induced by arachidonic acid with or without indomethacin was expressed as maximum percent change in dynamic lung compliance (Cdyn) and maximum percent increase in lung resistance (RL). Each guinea pig served as its own control for cyclooxygenase evaluation. The results are shown in Table I and are expressed as the percent inhibition of control.

For test [2], the system named is Arachidonate-Induced Bronchospasm (cyclooxygenase). The experiment in a line: Pulmonary Mechanics Assay: arachidonate-induced bronchospasm without indomethacin (indicative of cyclooxygenase inhibition). In kind it is in vivo, male Hartley guinea pigs. The conditions noted are these: Cavia porcellus, guinea pig; for inhibition in vivo at 15 mg/kg: IV dosing, read-out: Inhibition of Arachidonate-Induced Bronchospasm (IV Dosing), % Inh. without Indomethacin. How it is done:
as §1, §2, §3

The test system of test [3] is Arachidonate-Induced Ear Edema. The experiment in a line: Arachidonic Acid-Induced Ear Edema Assay. The conditions noted are these: topical, mouse ear; for inhibition in vivo at 0.4 mg: 400 μg topically; for inhibition in vivo at 0.4 mg / inhibition in vivo at 0.1 mg / inhibition in vivo at 0.2 mg: read-out: Inhibition of Arachidonate-Induced Ear Edema, % Inh. (μg topically); for inhibition in vivo at 0.1 mg: 100 μg topically; for inhibition in vivo at 0.2 mg: 200 μg topically. The test is classed as in vivo. How it is done: The topical anti-inflammatory activity of a compound was determined by its ability to inhibit an experimentally-induced inflammation in the mouse ear. Basically, four milligrams of arachidonic acid in acetone were applied to the dorsal surface of one ear with a microliter pipette. The mice were sacrificed at various times after application of arachidonic acid (one-half to six hours). A section of each ear was removed with a 7 mm round punch and weighed on an electronic or analytical balance. The difference in weight between treated and untreated ears was determined. Compounds to be evaluated for anti-inflammatory activity can be incorporated directly into the irritant mixture or at various times prior to or after application of arachidonic acid.
The degree of anti-inflammatory activity is shown in Table I, and is expressed in terms of the percent inhibition of ear weight increase.

Each structure is given as a SMILES string.

In general, IC50 refers to the concentration needed to halve the response being measured. Higher therefore signals a need for much substance. By inhibition is commonly meant the drop in the measured response relative to a control, in per cent.

Regarding `COc1ccc(CCNC(=O)N(C)O)cc1OC` [Example 40, N-[2-(3,4-Dimethoxyphenyl)ethyl]N'-hydroxy-N'-methylurea], the IC50 against 5-lipoxygenase was 4.3 µM. Besides, the inhibition in vivo at 25 mg/kg in test [1] (ID dosing, 25 mg/kg, read-out: Inhibition of Arachidonate-Induced Bronchospasm (ID Dosing), % Inh. with Indomethacin) came to 89%; in test [2] (ID dosing, 25 mg/kg, read-out: Inhibition of Arachidonate-Induced Bronchospasm (ID Dosing), % Inh. without Indomethacin), 69%. Besides, the figures for the inhibition in vivo at 15 mg/kg in test [1] and in test [2] were 89% and 86%, respectively. Further, the inhibition in vivo at 0.4 mg in test [3] amounted to 66%.

`CCCCCCCCCCN(O)C(=O)NCCCC(=O)OC` [Example 5, N-[3-(Methoxycarbonyl)propyl]-N'-decyl-N'-hydroxyurea]: on 5-lipoxygenase, the inhibition at 3 µM turned out to be 100%. Further, the inhibition in vivo at 15 mg/kg in test [1] is 37%; in test [2], < 20%. The inhibition in vivo at 0.4 mg in test [3] amounted to 49%.

Consider `CCCCCCCCN(O)C(=O)N(C)C` [Example 7, N,N-Dimethyl-N'-octyl-N'-hydroxyurea], for which, at 5-lipoxygenase, the inhibition at 3 µM worked out at 77% and half-maximal inhibition (IC50) required 1.8 µM. Besides, the inhibition in vivo at 15 mg/kg in test [1] was 41%. In test [2], the inhibition in vivo at 15 mg/kg was found to be 61%. Besides, in test [3], the “Inhibition of Arachidonate-Induced Ear Edema, ED50” value (shortened to “Inhibition … ED50”) is 49 µg.

For `CCCCCCCCCCN(O)C(=O)NCCCCCCC(=O)OC` [Example 6, N-[6-(Methoxycarbonyl)hexyl]-N'-decyl-N'-hydroxyurea], at 5-lipoxygenase, the inhibition at 3 µM is 100%. Moreover, the inhibition in vivo at 15 mg/kg in test [1] was < 20%; in test [2], -45%. Also, in test [3], the inhibition in vivo at 0.4 mg is 30%.

Compound `CCCCCCCCCCN1CCCN(O)C1=O` [Example 26, 1-Decyl-3-hydroxy-3,4,5,6-tetrahydro-lH-pyrimidin-2-one] had an IC50 at 5-lipoxygenase of 0.7 µM. For the same compound, the inhibition in vivo at 0.4 mg in test [3] is 30%.

Take `CCCCCCCCCCN1C(=O)N(O)CC1C(=O)OCC` (stereo not shown) [Example 27, Ethyl 3-decyl-1-hydroxyimidazolidin-2-one-4-carboxylate]: on 5-lipoxygenase, the midpoint of inhibition, the IC50, lay at 1.4 µM. Besides, the inhibition in vivo at 0.4 mg in test [3] was 13%.

As to `COc1cc2c(cc1OC)CN(C(=O)N(C)O)CC2` [Example 51, 6,7-Dimethoxy-N-hydroxy-N-methyl-1,2,3,4-tetrahydroisoquinoline-2-carboxamide], the inhibition at 3 µM at 5-lipoxygenase turned out to be 24%. Besides, the inhibition in vivo at 15 mg/kg in test [1] was 60%; in test [2] it was < 20%. For the same compound, the inhibition in vivo at 0.1 mg in test [3] stood at 28%.

With `CCCCCCCCCCCCN(O)C(=O)N(C)C` [Example 13, N,N-Dimethyl-N.-dodecyl-N'-hydroxyurea], the inhibition at 3 µM at 5-lipoxygenase came to 95%. Also, the figures for the inhibition in vivo at 15 mg/kg in test [1] and in test [2] were 66% and 57%, respectively. In addition, in test [3], the inhibition in vivo at 0.2 mg was found to be 90%.

Take `COc1ccc(CC(C)(C)NC(=O)N(C)O)cc1OC` [Example 56, N-[2-(3,4-Dimethoxyphenyl)-1,1-dimethylethyl]-N'hydroxy-N'-methylurea]: the inhibition at 3 µM at 5-lipoxygenase was 3%. Also, the inhibition in vivo at 0.1 mg in test [3] was 38%.

As to `CCCCCCCCN1CCN(O)C1=O` [Example 24, 1-Octyl-3-hydroxyimidazolidin-2-one], on 5-lipoxygenase, half-maximal inhibition (IC50) was put at 5.2 µM. In addition, the inhibition in vivo at 0.2 mg in test [3] is 27%.

As to `CCCCCCCCCN(O)C(=O)N(C)C` [Example 8, N,N-Dimethyl-N'-nonyl-N'-hydroxyurea], the inhibition at 3 µM at 5-lipoxygenase amounted to 93%. Besides, the inhibition in vivo at 0.2 mg in test [3] came out at 95%.

On to `COc1ccc(CCNC(=O)N(C)O)cc1OCc1ccccc1` [Example 69, N-[2-(3-Benzyloxy-4-methoxyphenyl)ethyl]-N'-hydroxy-N'-methylurea], for which, on 5-lipoxygenase, the inhibition at 3 µM was 41%. Besides, the inhibition in vivo at 0.2 mg in test [3] is 38%.

On to `CCCCCCCCCCC1CN(O)C(=O)N1C` (stereo not shown) [Example 28, 4-Decyl-1-hydroxy-3-methylimidazolidin-2-one], for which, on 5-lipoxygenase, the inhibition at 3 µM turned out to be 96% and it took 0.28 µM to reach half-maximal inhibition (IC50). For the same compound, in test [3], the “Inhibition … ED50” value turned out to be 134 µg and the inhibition in vivo at 0.4 mg amounted to 85%.

On to `CN(O)C(=O)NCCCCCCCOCc1ccccc1` [Example 39, N-[7-(Benzyloxy)heptyl]-N'hydroxy-N'-methylurea], for which the inhibition at 3 µM at 5-lipoxygenase was 100%. Moreover, in test [3], the “Inhibition … ED50” value worked out at 31 µg and the inhibition in vivo at 0.2 mg is 70%.

With `CCCCCCCCCC(C)(C)NC(=O)N(C)O` [Example 20, N-(1,1-Dimethyldecyl)-N'-methyl-N'-hydroxyurea], the inhibition at 3 µM on 5-lipoxygenase amounted to 65%. Further, the inhibition in vivo at 0.1 mg in test [3] amounted to 47%.

`CCCCCCCCCCN(O)C(=O)NCC(=O)OCC` [Example 3, N-(Ethoxycarbonyl)methyl-N'-decyl-N'-hydroxyurea]: at 5-lipoxygenase, the inhibition at 3 µM came to 100%. For the same compound, the inhibition in vivo at 0.4 mg in test [3] was found to be 51%.

Regarding `CN(O)C(=O)NCCc1ccc(-c2ccccc2)cc1` [Example 31], at 5-lipoxygenase, the inhibition at 3 µM came out at 39%. For the same compound, the inhibition in vivo at 0.2 mg in test [3] amounted to 40%.

Regarding `CCCCCCCN(O)C(=O)N(C)C` [Example 9, N,N-Dimethyl-N'-heptyl-N'-hydroxyurea], the inhibition at 3 µM on 5-lipoxygenase was 64%. Further, the “Inhibition … ED50” value in test [3] is 55 µg.

Consider `COc1ccc(CCNC(=O)N(OC(C)=O)C(C)(C)C)cc1OC` [Example 52, N-[2-(3,4-Dimethoxyphenyl)ethyl]-N'-acetoxy-N'-t-butylurea], for which the inhibition at 3 µM on 5-lipoxygenase worked out at 9%. Besides, the inhibition in vivo at 0.1 mg in test [3] was found to be 69%.

As for `COc1cc2c(cc1OC)CCN(C(=O)N(C)O)CC2` [Example 62, 7,8-Dimethoxy-N-hydroxy-N-methyl-1,2,4,5-tetrahydro-3H-3-benzazepine-3-carboxamide], on 5-lipoxygenase, the inhibition at 3 µM came out at 0%. For the same compound, the inhibition in vivo at 0.2 mg in test [3] worked out at 35%.

The values above are taken from patent publication US5066658A, “Substituted hydroxyureas” (Ortho Pharmaceutical Corporation, priority 1990, dated 1991).
